Values joined by “and” are separate entries in the source; they are usually repeats but may differ in a detail not shown here. Equal entries are not always repeated. Inconclusive results and toxic doses are left out.
Test system: BDF1 mice, P388 leukemia ip, median survival T/C
Experiment: NCI In Vivo Anticancer Drug Screen. Data for tumor model P388 Leukemia (intraperitoneal) in B6D2F1 (BDF1) mice
Settings: endpoint: median survival time, higher = longer survival
In short: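 Transplantable tumour in mice; compound vs vehicle dosing; survival scored; ratio of treated to control reported.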

[1] = dose: 25.0 mg/kg/injection, schedule: Q01DX009 (ip), vehicle: saline
[2] = dose: 50.0 mg/kg/injection, schedule: Q01DX009 (ip), vehicle: saline
[3] = dose: 100.0 mg/kg/injection, schedule: Q01DX009 (ip), vehicle: saline
[4] = dose: 12.5 mg/kg/injection, schedule: Q01DX009 (ip), vehicle: water
[5] = dose: 25.0 mg/kg/injection, schedule: Q01DX009 (ip), vehicle: water
[6] = dose: 50.0 mg/kg/injection, schedule: Q01DX009 (ip), vehicle: water
[7] = dose: 100.0 mg/kg/injection, schedule: Q01DX009 (ip), vehicle: water
[8] = dose: 200.0 mg/kg/injection, schedule: Q01DX009 (ip), vehicle: water
[9] = dose: 100.0 mg/kg/injection, schedule: Q04DX003 (ip), vehicle: Klucel (hydroxypropylcellulose) (HPC)
[10] = dose: 200.0 mg/kg/injection, schedule: Q04DX003 (ip), vehicle: Klucel (hydroxypropylcellulose) (HPC)
[11] = dose: 400.0 mg/kg/injection, schedule: Q04DX003 (ip), vehicle: Klucel (hydroxypropylcellulose) (HPC)
[12] = dose: 100.0 mg/kg/injection, schedule: Q01DX009 (ip), vehicle: saline with Tween-80
[13] = dose: 200.0 mg/kg/injection, schedule: Q04DX003 (ip), vehicle: saline with Tween-80
[14] = dose: 400.0 mg/kg/injection, schedule: Q04DX003 (ip), vehicle: saline with Tween-80
[15] = dose: 50.0 mg/kg/injection, schedule: Q01DX009 (ip), vehicle: saline with Tween-80
[16] = dose: 100.0 mg/kg/injection, schedule: Q04DX003 (ip), vehicle: saline
[17] = dose: 200.0 mg/kg/injection, schedule: Q04DX003 (ip), vehicle: saline
[18] = dose: 400.0 mg/kg/injection, schedule: Q04DX003 (ip), vehicle: saline
[19] = dose: 50.0 mg/kg/injection, schedule: Q04DX003 (ip), vehicle: saline with Tween-80
[20] = dose: 100.0 mg/kg/injection, schedule: Q04DX003 (ip), vehicle: saline with Tween-80
[21] = dose: 25.0 mg/kg/injection, schedule: Q01DX009 (ip), vehicle: Klucel (hydroxypropylcellulose) (HPC)
[22] = dose: 50.0 mg/kg/injection, schedule: Q01DX009 (ip), vehicle: Klucel (hydroxypropylcellulose) (HPC)
[23] = dose: 100.0 mg/kg/injection, schedule: Q01DX009 (ip), vehicle: Klucel (hydroxypropylcellulose) (HPC)

For NCC(O)CSc1ccccc1 (centres undefined), the T/C [1] was 95 % of control, the T/C [2] was 100 % of control and the T/C [3] was 106 % of control.
With COc1cc(/C=C/C(=O)c2ccc3c(c2)OCO3)ccc1OCc1ccccc1 the T/C (dose: 6.25 mg/kg/injection, schedule: Q01DX009 (ip), vehicle: water) was 100 % of control, the T/C [4] was 100 % of control and the T/C [5] was 106 % of control and 108 % of control. The T/C [6] was 95 % of control and 110 % of control, the T/C (dose: 50.0 mg/kg/injection, schedule: Q04DX003 (ip), vehicle: water) was 86 % of control and the T/C [7] was 95 % of control. For the same molecule, the T/C (dose: 100.0 mg/kg/injection, schedule: Q04DX003 (ip), vehicle: water) was 100 % of control, the T/C [8] was 97 % of control and 110 % of control and the T/C (dose: 200.0 mg/kg/injection, schedule: Q04DX003 (ip), vehicle: water) was 87 % of control. For the same molecule, the T/C (dose: 400.0 mg/kg/injection, schedule: Q04DX003 (ip), vehicle: water) was 89 % of control.
In the case of CC1(C)OS2(c3ccccc3)OC(=O)c3cccc1c32 (centres undefined), the T/C (dose: 50.0 mg/kg/injection, schedule: Q04DX002 (ip), vehicle: saline) is reported as 94 % of control, the T/C (dose: 100.0 mg/kg/injection, schedule: Q04DX002 (ip), vehicle: saline) is reported as 100 % of control and the T/C (dose: 200.0 mg/kg/injection, schedule: Q04DX002 (ip), vehicle: saline) is reported as 100 % of control.
With CCC(=O)OCc1ccc(Cl)cc1 the T/C (dose: 75.0 mg/kg/injection, schedule: Q04DX003 (ip), vehicle: Klucel (hydroxypropylcellulose) (HPC)) was 100 % of control, the T/C (dose: 150.0 mg/kg/injection, schedule: Q04DX003 (ip), vehicle: Klucel (hydroxypropylcellulose) (HPC)) was 100 % of control and the T/C (dose: 300.0 mg/kg/injection, schedule: Q04DX003 (ip), vehicle: Klucel (hydroxypropylcellulose) (HPC)) was 100 % of control.
With CCCCCCCCCCCS(=O)(=O)C(CCOS(C)(=O)=O)COS(C)(=O)=O (centres undefined) the T/C [9] was 95 % of control, the T/C [10] was 100 % of control and the T/C [11] was 100 % of control.
Cc1nn2c(=O)[nH]cnc2c1Cl was tested, and the T/C [12] was 93 % of control, the T/C (dose: 200.0 mg/kg/injection, schedule: Q01DX009 (ip), vehicle: saline with Tween-80) was 100 % of control and the T/C [13] was 95 % of control. The T/C [14] was 109 % of control.
With CSc1ccc(NC(=O)NNP(=S)(Oc2ccc(C(C)(C)C)cc2)Oc2ccc(C(C)(C)C)cc2)cc1 the T/C (dose: 50.0 mg/kg/injection, schedule: Q01DX005 (ip), vehicle: saline with Tween-80) was 96 % of control and the T/C (dose: 100.0 mg/kg/injection, schedule: Q01DX005 (ip), vehicle: saline with Tween-80) was 96 % of control.
For CC(=Nc1ccccc1)C1=C(O)C(Cc2ccc(O)cc2)NC1=O (centres undefined), the T/C [15] was 110 % of control and the T/C [12] was 101 % of control.
In the case of NC(N)=Nc1ccc(C(=O)Nc2ccc([N+](=O)[O-])cc2)cc1, the T/C [2] is reported as 101 % of control, the T/C [3] is reported as 103 % of control and the T/C [16] is reported as 97 % of control. For the same molecule, the T/C (dose: 200.0 mg/kg/injection, schedule: Q01DX009 (ip), vehicle: saline) was 91 % of control, the T/C [17] was 91 % of control and the T/C [18] was 100 % of control.
In the case of CSc1nc(N)nc2nc[nH]c12, the T/C [15] is reported as 109 % of control and the T/C [12] is reported as 104 % of control.
CC1(C)SC2C(NC(=O)C(C(=O)O)c3ccccc3)C(=O)N2C1C(=O)O (centres undefined) was tested, and the T/C (dose: 50.0 mg/kg/injection, schedule: Q01DX010 (ip), vehicle: saline) was 122 % of control, the T/C (dose: 100.0 mg/kg/injection, schedule: Q01DX010 (ip), vehicle: saline) was 113 % of control and the T/C (dose: 200.0 mg/kg/injection, schedule: Q01DX010 (ip), vehicle: saline) was 113 % of control. The T/C (dose: 400.0 mg/kg/injection, schedule: Q01DX010 (ip), vehicle: saline) was 118 % of control.
With CCCC(=O)C(CC)C(O)(C(F)(F)F)C(F)(F)F (centres undefined) the T/C [19] was 100 % of control, the T/C [20] was 104 % of control and the T/C [13] was 118 % of control.
For [NH-]CC(=O)[N-]CC(=O)O.[NH-]CC(=O)[N-]CC(=O)O.[Ni], the T/C (dose: 3.0 mg/kg/injection, schedule: Q01DX009 (ip), vehicle: saline) was 100 % of control, the T/C (dose: 6.0 mg/kg/injection, schedule: Q01DX009 (ip), vehicle: saline) was 103 % of control and the T/C (dose: 12.0 mg/kg/injection, schedule: Q01DX009 (ip), vehicle: saline) was 116 % of control. For the same molecule, the T/C (dose: 12.5 mg/kg/injection, schedule: Q04DX003 (ip), vehicle: saline) was 104 % of control, the T/C (dose: 18.0 mg/kg/injection, schedule: Q01DX009 (ip), vehicle: saline) was 110 % of control and the T/C (dose: 25.0 mg/kg/injection, schedule: Q04DX003 (ip), vehicle: saline) was 109 % of control. For the same molecule, the T/C (dose: 50.0 mg/kg/injection, schedule: Q04DX003 (ip), vehicle: saline) was 100 % of control and 118 % of control.
In the case of c1coc(-c2ncnc3c2Cc2ccccc2-3)c1, the T/C [21] is reported as 100 % of control, the T/C [22] is reported as 118 % of control and the T/C [23] is reported as 109 % of control. The T/C (dose: 150.0 mg/kg/injection, schedule: Q01DX009 (ip), vehicle: Klucel (hydroxypropylcellulose) (HPC)) was 91 % of control.
In the case of CCOP(=O)(OCC)ON1C(=O)c2cccc3cccc(c23)C1=O, the T/C (dose: 0.78 mg/kg/injection, schedule: Q01DX009 (ip), vehicle: Klucel (hydroxypropylcellulose) (HPC)) is reported as 97 % of control and the T/C (dose: 1.56 mg/kg/injection, schedule: Q01DX009 (ip), vehicle: Klucel (hydroxypropylcellulose) (HPC)) is reported as 99 % of control.
O=[N+]([O-])c1ccc(N2CCN(CCO)CC2)c2nonc12 was tested, and the T/C (dose: 15.0 mg/kg/injection, schedule: Q01DX009 (ip), vehicle: saline with Tween-80) was 100 % of control, the T/C (dose: 25.0 mg/kg/injection, schedule: Q04DX003 (ip), vehicle: saline with Tween-80) was 97 % of control and the T/C (dose: 30.0 mg/kg/injection, schedule: Q01DX009 (ip), vehicle: saline with Tween-80) was 97 % of control. For the same molecule, the T/C [19] was 96 % of control.
In the case of Cc1ccc(NCc2cccc3ccccc23)c(C)c1, the T/C [16] is reported as 91 % of control, the T/C [17] is reported as 100 % of control and the T/C [18] is reported as 95 % of control.
In the case of Nc1ccc(-c2ccc(N)cc2Br)c(Br)c1, the T/C [20] is reported as 100 % of control, the T/C [13] is reported as 95 % of control and the T/C [14] is reported as 104 % of control.
CCOC(=O)C(C#N)C1CCCCC1 (centres undefined) was tested, and the T/C [23] was 100 % of control, the T/C [9] was 104 % of control and the T/C (dose: 200.0 mg/kg/injection, schedule: Q01DX009 (ip), vehicle: Klucel (hydroxypropylcellulose) (HPC)) was 104 % of control. The T/C [10] was 104 % of control, the T/C (dose: 400.0 mg/kg/injection, schedule: Q01DX009 (ip), vehicle: Klucel (hydroxypropylcellulose) (HPC)) was 109 % of control and the T/C [11] was 90 % of control.
With COc1cc2c(cc1OC)-c1cc3cc(OC)c(OC)cc3c(C)[n+]1CC2 the T/C (dose: 12.5 mg/kg/injection, schedule: Q01DX009 (ip), vehicle: Klucel (hydroxypropylcellulose) (HPC)) was 106 % of control, the T/C [21] was 106 % of control and the T/C [22] was 113 % of control.
For CCOC(=O)NC1=C(N2CC2)C(=O)C(NC(=O)OCC)=C(N2CC2)C1=O, the T/C (dose: 0.78 mg/kg/injection, schedule: Q01DX009 (ip), vehicle: saline) was 199 % of control and 211 % of control and 212 % of control, the T/C (dose: 1.56 mg/kg/injection, schedule: Q01DX009 (ip), vehicle: saline) was 235 % of control and 238 % of control and 212 % of control and the T/C (dose: 3.12 mg/kg/injection, schedule: Q01DX009 (ip), vehicle: saline) was 100 % of control.
In the case of NNC(=O)[C@H]1CC[C@H]1C(=O)NN, the T/C [1] is reported as 95 % of control and the T/C [2] is reported as 109 % of control.
For CCNC(=S)N/N=C\C=N/NC(=S)NCC, the T/C (dose: 75.0 mg/kg/injection, schedule: Q01DX009 (ip), vehicle: saline with Tween-80) was 90 % of control and the T/C (dose: 300.0 mg/kg/injection, schedule: Q01DX009 (ip), vehicle: saline with Tween-80) was 91 % of control.
In the case of O=[N+]([O-])c1ccc(Oc2ccc(C3N(c4ccccc4)CCN3c3ccccc3)cc2)c([N+](=O)[O-])c1, the T/C [4] is reported as 99 % of control, the T/C [5] is reported as 89 % of control and the T/C [6] is reported as 99 % of control. The T/C [7] was 90 % of control and the T/C [8] was 91 % of control.

— PubChem BioAssay AID328 (DTP/NCI, 2004)
